Patent publication US12076307B2, “Compositions for prevention or treatment of acute radiation syndrome and other radiation exposure” (priority 2017, dated 2024)

Key:
[1] = Plasma protein binding by rapid equilibrium dialysis, rat; conditions: Rats, 4 hrs RED, n=3
Protocol: The plasma protein binding ability of EC-18 was tested by rapid equilibrium dialysis (RED). The chamber separated by a dialysis tubing membrane (cut-off: 8 kDa) was filled on one side with rat or human plasma mixed with phosphate buffer and on the other side with rat or human plasma mixed with the test or standard reference material (test concentration: 1 μM).

[2] = system: SD rat; test: Immunotoxicity study; assay type: in vivo; conditions: Oral; 4 weeks; 0, 2000 mg/kg
Excerpt: (§1) Various toxicology studies have been performed. All studies were GLP-compliant unless otherwise noted.

[3] = system: BALB/c mice, 6.11 Gy γ-radiation TBI; test: LD70/30 (6.11 Gy) ARS model: survival, life span, body weight, EC-18 10/50/250 mg/kg; assay type: in vivo, mouse; conditions: for improvement of survival vs control group / ≥10% Body Weight Loss, % / ≥20% Body Weight Loss, % / Average life span / Median survival / No. of mice that survived/total / Survivability / Survival: 6.11 Gy; for No. of mice that survived/total / Survivability / Survival: 30 days
Protocol: For the experiments to determine survival rate following LD70/30 dose 6.11 Gy of γ-irradiation (TBI, ^60Co, 0.833Gy min-1), mice were grouped 20 (10 males and 10 females) per treatment cohorts; γ-radiation only cohort (positive control), γ-radiation with EC-18 10 mg/kg cohort, γ-radiation with EC-18 50 mg/kg cohort, and γ-radiation with EC-18 250 mg/kg cohort. EC-18 (Enzychem Lifesciences, Jaecheon, Republic of Korea) was suspended in PBS and orally administrated once a day, starting 1 day after irradiation. The positive control group was administrated PBS. The survival and body weight of the animals were recorded daily for 30 days.
All data are presented as the mean t standard deviation (SD). A paired Log rank (Mantel-Cox) test of survival curve was applied to estimate the significance on survival rate and to compare the duration of neutropenia between control and EC-18-treated cohorts. Average life span was calculated as the sum of the life span for all mice/total number of mice. For comparison of the statistical differences of more than two groups, one-way ANOVA test was used. All other statistical analyses were performed using a Student's paired t test and p values<0.05 were considered statistically significant.
The purpose of this study was to investigate the dose-effect of EC-18 on increasing the survival in mice after exposure to γ-radiation to the entire body. Eleven-week-old male and female BALB/c mice (10 females and 10 males; 20 animals per study group) were tested for the LD70/30 study. This study is consisted of 4 experimental groups; γ-radiation only group, and γ-radiation with EC-18 treatment groups at 10, 50, or 250 mg/kg.

[4] = system: gemcitabine-treated mice; test: Gemcitabine-induced neutropenia, PLAG with pegfilgrastim; assay type: in vivo, mouse
Protocol: In this work, neutrophil counts were compared in four groups of mice: control mice, gemcitabine-treated mice, gemcitabine/pegfilgrastim-treated mice, and gemcitabine/pegfilgrastim/PLAG-treated mice. Gemcitabine was administered intraperitoneally to induce neutropenia. On Day 0, pegfilgrastim was administered subcutaneously. PLAG (50 mg/kg) was orally administered every day during the treatment course. Blood was taken from the orbital sinuses on Days 0, 3, and 5, and neutrophils were counted. […] Pegfilgrastin is polyethylene glycol (PEG)-conjugated granulocyte colony-stimulating factor (PEGylated-G-CSF, pegfilgrastim).

[5] = system: ICR mouse; test: Micronucleus assay; assay type: in vivo; conditions: Oral; Single; 0, 500, 1000, 2000 mg/kg
Excerpt: as §1

[6] = system: Beagle dog; test: Cardiovascular function in conscious dogs; assay type: in vivo; conditions: doses up to 2000 mg/kg
Protocol: CA was administered to one unanesthetized and unrestrained telemetered male Beagle dog and EC-18 (500, 1000, or 2000 mg/kg) was administered to each of three unanesthetized and unrestrained telemetered male Beagle dogs (1:1:1:1) weekly for 4 weeks. Cardiovascular effects were evaluated based on the behavioral observations, BP, HR, and ECG, from 1-hr pre-dose to 24-hr post-dose.

[7] = system: CXCL8; test: CXCL8 release in HaCaT cells treated with CM or rhHMGB1; assay type: cell-based, human
Protocol: An additional experiment was tested for assessing whether EC-18 treatment leads to early termination of the RIPK1/3-MLKL-mediated downstream necroptosis pathway. This was performed by using DAMP-containing conditioned media (CM) harvested from HaCaT cells, irradiated for 48 hrs, and analyzed after 2 or 72 hrs of EC-18 treatment. […] To further confirm that DAMPs in CM contribute to the activation of a necroptosis signaling pathway in a paracrine manner, recombinant human HMGB1 (rhHMGB1) was treated directly to the normal HaCaT cells. The rhHMGB1 elevated the phosphorylation of RIPK1/3 and MLKL after 2 hrs and subsequently released HMGB1 and HSP90 (FIGS. 35C-35D). To evaluate whether EC-18 mitigates the activation of RIPK1/3 and MLKL, 10 or 100 μg/mL of EC-18 was treated before the addition of CM or rhHMGB1. As a result, EC-18 lowered the phosphorylation of RIPK/3 and MLKL in both CM- and rhHMGB1-treated cells after 2 hrs. Release of HMGB1 and Hsp90 was also subsided by EC-18 after 72 hrs of post addition of CM or rhHMGB1 to the cells (FIGS. 35A-35D). TLR4-induced necroptosis signaling pathway caused by DAMP release produces cytokines, such as CXCL8, a chemotactic cytokine for neutrophils. As CXCL8 increases upon tissue damage, it was measured in cells treated with CM or rhHMGB1 as a measure of inflammation. CXCL8 of CM from cells treated with chemo and radiotherapy was used for this evaluation. […] Moreover, rhHMGB1 increased the production of CXCL8, modulated by EC-18.

[8] = EC-18 10 mg/kg oral daily from day 1, 10 mg/kg
[9] = EC-18 50 mg/kg oral daily from day 1, 50 mg/kg
[10] = EC-18 250 mg/kg oral daily from day 1, 250 mg/kg

Structure (SMILES): CCCCC/C=C\C/C=C\CCCCCCCC(=O)OC(COC(C)=O)COC(=O)CCCCCCCCCCCCCCC (stereo not shown) [EC-18, 1-palmitoyl-2-linoleoyl-3-acetylglycerol]
- Plasma Protein Binding Rate ([1]; 1 μM): 98.8 ± 0.5%
- fraction unbound at 4 hrs, 1 μM ([1]; rat, plasma, Plasma Protein Binding Rate): < 0.01
- immunotoxicity [2]: No immunotoxicity
- radiation-induced weight loss vs positive control cohort ([3]; 250 mg/kg, from the 18th day after irradiation to the end): significantly reduced
- improvement of survival vs control group ([3]; 50 mg/kg daily): 2 fold
- improvement of survival vs control group ([3]; 250 mg/kg daily): 4 fold
- ≥10% Body Weight Loss, % ([3]; EC-18 10 mg/kg): 85%
- ≥20% Body Weight Loss, % ([3]; EC-18 10 mg/kg): 70%
- Average life span [3, 8]: 22.3 days
- Median survival [3, 8]: 17 days
- No. of mice that survived/total [3, 8]: 4/20
- Survivability / Survival [3, 8]: 40%
- ≥10% Body Weight Loss, % ([3]; EC-18 50 mg/kg): 55%
- ≥20% Body Weight Loss, % ([3]; EC-18 50 mg/kg): 35%
- Average life span [3, 9]: 19.3 days
- Median survival [3, 9]: 20 days
- No. of mice that survived/total [3, 9]: 8/20
- Survivability / Survival [3, 9]: 20%
- ≥10% Body Weight Loss, % ([3]; EC-18 250 mg/kg): 15%
- ≥20% Body Weight Loss, % ([3]; EC-18 250 mg/kg): 15%
- Average life span [3, 10]: 17.9 days
- Median survival [3, 10]: 30 days
- No. of mice that survived/total [3, 10]: 16/20
- severe weight loss ([3]; two higher doses (50 and 250 mg/kg)): significantly prevented severe weight loss
- blood cell apoptosis and neutrophil release from bone marrow ([4]; PLAG 50 mg/kg): did not affect
- pegfilgrastim-induced CXCR2 expression in neutrophils ([4]; PLAG 50 mg/kg): markedly decreased
- neutrophil counts ([4]; gemcitabine/pegfilgrastim/PLAG 50 mg/kg oral daily, third day following pegfilgrastim): dramatically increased
- micronucleus induction in mouse bone marrow cells [5]: EC-18 does not affect
- cardiovascular effects (behavior, BP, HR, ECG) [6]: no cardiovascular effects
- CXCL8 level ([7]; CM-treated cells): decreased in a dose-dependent manner
- CXCL8 production ([7]; rhHMGB1-treated cells): modulated
